Source: patent publication US20240390377A1, “COMPOSITION FOR THE PREVENTION OR TREATMENT OF NEURODEGENERATIVE OR MOTOR NEURON DISEASES COMPRISING HALOFUGINONE AS AN ACTIVE INGREDIENT” (CURAMYS CO., LTD., priority 2022, published 2024)

Tests used:
[1] = system: C2C12 cells; experiment: Western blot analysis of C2C12 myoblasts (TGF-β1 stimulation, halofuginone treatment); format: cell-based, mouse
Protocol: Specifically, C2C12 cells (CRL-1772) were purchased from the American Type Culture Collection (ATCC) and maintained in DMEM medium (Welgene) containing 10% (v/v) fetal bovine serum (FBS; Gibco) and 1% penicillin-streptomycin (P/S; Gibco) at 37° C. under 5% CO2 conditions. The C2C12 cells were seeded in 6-well plates at a density of 3×10^5 cells per well and allowed to adhere for 24 hours. Subsequently, the medium was replaced with serum-free medium after 24 hours, followed by stimulation with 5 ng/ml rhTGF-β1 (recombinant human TGF-β1; R&D Systems). After stimulation, the cells were treated with various concentrations (0 [control], or 1, 2.5, 5 [low dose], 10 [high dose], 20, 50, 100 ng/ml) of halofuginone (Sigma) in serum-free medium for 24 hours.
(§1) Specifically, the lumbar spinal cord or knee joint of the mouse of Example 6 was separated and immediately frozen at −80° C. Each lumbar spinal cord or knee joint was then homogenized and chemically treated to obtain cells. The chemically treated cells, the C2C12 cells of Example 1 or the fibroblasts of Example 5 were dissolved in a RIPA buffer (Thermo, MA, USA) with a protease inhibitor and a phosphatase inhibitor (Roche, IN, USA) and incubated on ice for 30 minutes. After centrifugation of the lysate at 13,000 rpm at 4° C. for 20 min, insoluble substances were removed. Protein concentrations were measured by BCA analysis (Pierce Biotechnology). Equal volumes of cell lysate were loaded onto SDS-PAGE gels for electrophoresis, and transferred onto nitrocellulose membranes (Amersham Protran 0.2 um NC, Amersham Pharmacia Biotech, Piscataway, NJ, USA). The membranes were then blocked with 5% (w/v) skimmilk in 1×TBST for 1 h at room temperature. After blocking, anti-RB-actin antibody (1:5000; Santa Cruz, cat #sc47778), anti-Smad2 antibody (1:1000; Cell Signaling, cat #5339), anti-p-Smad2 antibody (1:1000; Cell Signaling, cat #3108), anti-TGF-β1 antibody (1:1000; Santa Cruz, cat #sc130348), anti-α-SMA antibody (1:10000; abcam cat #ab7817), anti-MyoD antibody (1:1000; cat #sc377460), anti-collagen|antibody (1:1000; abcam cat #ab21286), anti-cleaved caspase-3 antibody (1:1000; Cell Signaling, cat #9661), anti-bax antibody (1:500; Santa Cruz, cat #sc493), anti-bcl2 antibody (1:1000; Novus Biologics, cat #NB100-56098), anti-ChAT antibody (1:1000; Millipore, cat #AB144) were treated and incubated overnight at 4° C. Subsequently, membranes were washed several times with 1×TBST and incubated with horseradish peroxidase-conjugated secondary antibodies (anti-mouse, rabbit or goat, 1:5000; GE Healthcare) in blocking buffer for 1 h at room temperature (RT). The membranes were then washed, briefly incubated with the SuperSignal West Pico Plus Chemical Substructure (Pierce Biotechnology) according to the manufacturer's procedure, and quantified with an image analyzer (Amersham Pharmacia Biotech, Piscataway, NJ, USA). β-actin was used as an internal control group. The concentration measurement of protein intensity was quantified using Image J (National Institutes of Health).
Specifically, after treating C2C12 cells with TGF-β1 for 24 hours as in Example 1, real-time qRT-PCR was performed in the same manner as in Example 11 to confirm TGF-β1, 2 and 3, α-SMA and MyoD mRNA expression (FIG. 2a), and Western blot analysis was performed in the same manner as in Example 12 to confirm autocrine expression of TGF-β1 and MyoD protein and α-SMA (FIG. 2b).
Specifically, C2C12 cells were treated with halofuginone after TGF-β1 stimulation or no stimulation in the same manner as described in Example 2, and cell viability analysis was performed through CCK-8 analysis (FIGS. 3a and 3b), and Western blot analysis was performed in the same manner as described in Example 12 to confirm autocrine expression of p-Smad2, Smad2, TGF-β1, MyoD, collagen I protein and α-SMA (FIG. 3c). […]

[2] = system: G93A mutant SOD1 mouse-derived fibroblasts; experiment: Western blot analysis of ALS animal model-derived fibroblasts; format: cell-based; conditions: low or high concentration halofuginone for 24 hours; elevation vs Non-TG fibroblasts (FIG. 5b)
Description: Specifically, primary fibroblasts were isolated from skeletal muscle of 120-day-old non-transformed or G93A mutant SOD1 transgenic mice of Example 4. The excised tissue was placed on 100-mm culture dishes containing HBSS (Hanks' Balanced Salt Solution; Gibco, cat #14175095) and penicillin-streptomycin (Cat #15070-063, Thermo Fisher Scientific) without calcium and magnesium. Muscle tissue was cut on ice blocks. Then, the tissue was cut into 1 mm pieces and enzymatically reacted with 0.2% IV type collagenase (Sigma) at 37° C. for 1 hour. The enzymatic reaction was stopped by the addition of 10 ml of FBS (Gibco). The tissue mixture was centrifuged at 1,800 rpm at 4° C. for 5 min and resuspended with DMEM medium (Welgene) with 10% FBS. Cells were filtered through a 70 μm cell filter (BD Biosciences, San Jose, CA) and incubated in 0.2% gelatin-coated plates with DMEM medium with 10% FBS, 1% penicillin-streptomycin. Then, halofuginone was treated in the same manner as described in Example 1.
Specifically, the lumbar spinal cord or knee joint of the mouse of Example 6 was separated and immediately frozen at −80° C. Each lumbar spinal cord or knee joint was then homogenized and chemically treated to obtain cells. The chemically treated cells, the C2C12 cells of Example 1 or the fibroblasts of Example 5 were dissolved in a RIPA buffer (Thermo, MA, USA) with a protease inhibitor and a phosphatase inhibitor (Roche, IN, USA) and incubated on ice for 30 minutes. After centrifugation of the lysate at 13,000 rpm at 4° C. for 20 min, insoluble substances were removed. Protein concentrations were measured by BCA analysis (Pierce Biotechnology). Equal volumes of cell lysate were loaded onto SDS-PAGE gels for electrophoresis, and transferred onto nitrocellulose membranes (Amersham Protran 0.2 um NC, Amersham Pharmacia Biotech, Piscataway, NJ, USA). The membranes were then blocked with 5% (w/v) skimmilk in 1×TBST for 1 h at room temperature. […] The membranes were then washed, briefly incubated with the SuperSignal West Pico Plus Chemical Substructure (Pierce Biotechnology) according to the manufacturer's procedure, and quantified with an image analyzer (Amersham Pharmacia Biotech, Piscataway, NJ, USA). β-actin was used as an internal control group. The concentration measurement of protein intensity was quantified using Image J (National Institutes of Health). […]

[3] = system: G93A mutant SOD1 transgenic mice; experiment: Western blot analysis of knee joint tissue in ALS animal model; format: in vivo, mouse; conditions: 120 days old; compared to DMSO non-TG mice
Protocol: As a control group, non-transgenic mice were injected intraperitoneally (i.p.) with vehicle (DMSO) in the same manner for the same period of time.
as §1
Specifically, halofuginone was administered to G93A mutant SOD1 mice in the same manner as described in Example 6, and ROM measurement of the knee joint was performed in the same manner as described in Example 10 (FIG. 8a). In addition, Western blot analysis was performed in the same manner as the method described in Example 12 using knee joint tissue to confirm p-Smad2, Smad2, TGF-β1, α-SMA, MyoD, and collagen I protein expression (FIG. 8b).

[4] = halofuginone 5 ng/ml and 10 ng/ml, 24 h after TGF-β1 stimulation (FIG. 3c)

## O=C(C[C@H]1NCCC[C@@H]1O)Cn1cnc2cc(Br)c(Cl)cc2c1=O (racemic) [halofuginone]
[1]; [4]
  decrease in MyoD protein level by TGF-β1 stimulation: significantly recovered
  increase in TGF-β1 protein level by TGF-β1 stimulation: significantly reduced
  increase in collagen I protein level by TGF-β1 stimulation: significantly reduced
  increase in p-Smad2/Smad2 ratio by TGF-β1 stimulation: significantly reduced
  increase in α-SMA protein level by TGF-β1 stimulation: significantly reduced
[1]; low or high concentration halofuginone, 24 h after TGF-β1 stimulation (FIG. 4b)
  TGF-β1, α-SMA, MyoD and collagen I protein expression, compared with the mRNA result: the same
[2]
  elevated Col-I protein expression: attenuated
  elevated TGF-β protein expression: attenuated
  elevated p-Smad2/Smad2 ratio: attenuated
  elevated α-SMA protein expression: attenuated
[3]
  Col-1 expression level in knee joint tissue: rather reduced
  MyoD expression level in knee joint tissue: preserved similarly
  TGF-β1 expression level in knee joint tissue: preserved similarly
  p-Smad2/Smad2 ratio in knee joint tissue: preserved similarly
  α-SMA expression level in knee joint tissue: preserved similarly
